# Experimental data taken from patent US20160067162A1, “PHOTOPROTECTIVE COMPOUNDS, COMPOSITIONS INCLUDING SAME AND USES THEREOF” (UNIVERSITE DE RENNES 1, priority 2013, published 2016).
# How the values were obtained:
# Assay type in all cases: physicochemical
# [1] = SPF measurement, Protocol I (Rennes): simplified O/W emulsion, UV spectrum 200-400 nm; conditions: for λc p.I: critical wavelength; for λc p.I / Colipa UVA-PF p.I, at 10% / SPF p.I, at 10%: protocol I; for Colipa UVA-PF p.I, at 10%: product at 10%; for SPF p.I, at 10%: product at 10% in simplified O/W emulsion; for UVA/UVB: ratio of area under the curve 315-400 nm to 280-315 nm
# Procedure: The SPF measurement is carried out according to the following protocol described in Le Dévéhat F., Malargé A., Couteau C., Coiffard L., Legouin B. “Evaluation of a new UV-filter screening method”, 4th symposium of the AFERP “Biodiversity, chimie des substances naturelles et medicaments” [“Biodiversity, chemistry of natural substances and medicaments”] and 3rd Franco-Pakistani symposium, Besançon (France), Jul. 16-17-18, 2010. A solution of each product dissolved in dimethyl sulfoxide is incorporated at 10% into a simplified emulsion of oil-in-water (O/W) type consisting of liquid paraffin, water and SDS at 10%, the whole mixture taken up in absolute ethanol. The UV spectrum of each solution is recorded between 200 nm and 400 nm in a 10 mm quartz cell on a Uvikon 931 UV-vis spectrophotometer and measured in comparison with a control 10% emulsion solution.
# (§1) The SPF and UVA-PF values are, for the two protocols, calculated from the following equations: […]
# (§2) where Eλ is the erythemogenic effect of the radiation at the wavelength λ; Sλ is the spectral solar irradiance at the wavelength λ and Tλ is the spectral transmittance of the product at the wavelength λ, λc is the critical wavelength which corresponds to the wavelength at which 90% of the area under the curve (AUC) is integrated between 290 and 400 nm. The UVA/UVB ratio corresponds more specifically to the ratio of the area under the curve between 315 and 400 nm to the area under the curve between 280 and 315 nm.
# [2] = SPF measurement, Protocol II (Nantes): O/W emulsion on PMMA plate, transmission with integrating sphere; conditions: for λc (p.II): critical wavelength; for SPF (p.II, at 1%): product at 1% in O/W emulsion, PMMA plate, 290-400 nm; for Colipa UVA-PF (p.II, at 1%): product at 1%, 320-400 nm
# Procedure: The SPF measurement is carried out according to the protocol described in Lohézic-Le Dévéhat F., Legouin B., Couteau C., Boustie J., Coiffard L. “Lichenic extracts and metabolites as UV filters” Journal of Photochemistry and Photobiology B: Biology 120 (2013) 17-28:
# An emulsion having the following formulation is used: […]
# The two phases are prepared separately. The hydrophilic phase is then added, with stirring, to the lipophilic phase. The products are finally incorporated at 1% into this O/W emulsion. 30 mg of the whole mixture are distributed over the entire surface area (25 cm^2) of a PMMA plate using a finger store. After spreading, 15 mg remain on the finger store. Three plates are prepared per product and nine measurements are carried out. The transmission measurements between 290 and 400 nm for the SPF and between 320 and 400 nm for the UVA-PF are carried out using a spectrophotometer equipped with an integrating sphere (UV Transmittance analyzer UV1000S, Labsphere, North Sutton, US).
# as §1, §2
# [3] = UV spectrum measurement in CHCl3 (λmax, molar extinction coefficient); conditions: for λmax exp: 10^−4 M in CHCl3; for ε (molar extinction coefficient at the λmax): 10^−4 M in CHCl3, 1 cm cuvette
# Procedure: The products are diluted in CHCl3 so as to obtain a solution at 10^−4M. The UV spectra are measured using a Uvikon 931 UV-vis spectrophotometer, Serlabo Technologies, Entraigues sur la Sorgue, France. This UV spectrum makes it possible to determine the molar extinction coefficient (mol^−1 L cm^−1) at the λmax by virtue of the Beer-Lambert law: c=A/l×C;
# A=value of the absorbance at the λmax; l=length of the cuvette in cm (l=1);
# C=concentration of the solution=1×10^−4 mol/l. The theoretical λmax was determined for certain products by DFT calculation.
Structure (SMILES),λc p.I [1],"Colipa UVA-PF p.I, at 10% [1]","SPF p.I, at 10% [1]",UVA/UVB [1],λc (p.II) [2],"SPF (p.II, at 1%) [2]","Colipa UVA-PF (p.II, at 1%) [2]",λmax exp [3],ε (molar extinction coefficient at the λmax) [3]
"O=C1C=C(c2ccc(F)cc2)NCC1 [Compound 2, 6-(4-fluorophenyl)-2,3-dihydropyridin-4(1H)-one]",361 nm,5.85 ± 0.16,4.30 ± 0.12,3.08 ± 0.00,383 nm,1.81 ± 0.11,1.95 ± 0.12,326 nm,10924 L/mol/cm
"CN(C)c1ccc(C2=CC(=O)CCN2)cc1 [Compound 4, 6-(4-(dimethylamino)phenyl)-2,3-dihydropyridin-4(1H)-one]",361 nm,42.67 ± 1.16,9.24 ± 0.18,5.19 ± 0.01,387 nm,1.72 ± 0.08,1.88 ± 0.09,355 nm,26286 L/mol/cm
"COc1ccc(C2=CC(=O)CCN2)cc1 [Compound 3, 6-(4-methoxyphenyl)-2,3-dihydropyridin-4(1H)-one]",362 nm,9.16 ± 0.10,4.30 ± 0.12,2.85 ± 0.01,384 nm,1.25 ± 0.04,1.33 ± 0.04,330 nm,16259 L/mol/cm
"CCCC1=CC(=O)CCN1 [Compound 5, 6-propyl-2,3-dihydropyridin-4(1H)-one]",328 nm,1.66 ± 0.003,12.17 ± 0.09,0.36 ± 0.00,335 nm,11.18 ± 1.03,2.58 ± 0.07,303 nm,12361 L/mol/cm
